Measurements as given in PubChem BioAssay (NCI).
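Protocol summary: plate cells (96-well), add compound at 5 concentrations, incubate 48 h, interpolate endpoints linearly. Definition used: TGI = concentration required for complete inhibition of growth.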

How the values were obtained:
Test in all cases: DTP human tumour cell line panel, 48 h
CAKI-1 renal = test system: CAKI-1 renal
DU-145 prostate = test system: DU-145 prostate
HT29 colon = test system: HT29 colon
MCF7 breast = test system: MCF7 breast
MDA-MB-435 = test system: MDA-MB-435
MDA-N = test system: MDA-N
NCI-H226 lung = test system: NCI-H226 lung
NCI-H23 lung = test system: NCI-H23 lung
OVCAR-4 ovarian = test system: OVCAR-4 ovarian
SK-MEL-5 melanoma = test system: SK-MEL-5 melanoma
U251 CNS = test system: U251 CNS
RXF 393 renal = test system: RXF 393 renal

Structure (SMILES) | TGI (CAKI-1 renal) [µM] | TGI (DU-145 prostate) [µM] | TGI (HT29 colon) [µM] | TGI (MCF7 breast) [µM] | TGI (MDA-MB-435) [µM] | TGI (MDA-N) [µM] | TGI (NCI-H226 lung) [µM] | TGI (NCI-H23 lung) [µM] | TGI (OVCAR-4 ovarian) [µM] | TGI (SK-MEL-5 melanoma) [µM] | TGI (U251 CNS) [µM] | TGI (RXF 393 renal) [µM]
COc1cccc(-n2nnc3c(N)nc(N)nc32)c1 | > 100 | > 100 | > 100 | > 100 | > 100 | > 100 | > 100 | 76.3 | > 100 | > 100 | > 100 | 
O=C(O)CCCN1CCCCC1 | > 100 | > 100 | > 100 |  | > 100 | > 100 | > 100 | > 100 | > 100 | > 100 | > 100 | > 100
CCN(CC)P1(=S)Oc2ccc3ccccc3c2-c2c(ccc3ccccc23)O1 | > 100 | > 100 | > 100 | > 100 | > 100 | > 100 | > 100 | > 100 | > 100 | > 100 | > 100 | 
CCCCN(CCCC)CC(=O)c1ccc2cc(Cl)c3ccccc3c2c1 | 78.6 | > 100 | 46 | 92.3 | > 100 |  | 89.5 | > 100 | 69.1 | 34.6 | 68.8 | 46.2
Brc1ccc(-c2ccc(-c3ccc(Br)s3)s2)s1 |  | > 100 | > 100 | > 100 | > 100 | > 100 | > 100 | > 100 | > 100 | > 100 | > 100 | > 100
CC1OC(OC2C(CO)OC(O[C@H]3CC[C@@]4(C)C(=CC[C@H]5[C@@H]6C[C@@H]7O[C@](O)(CC[C@@H](C)COC8OC(CO)C(O)C(O)C8O)[C@@H](C)[C@@H]7[C@@]6(C)CC[C@@H]54)C3)C(OC3OC(C)C(O)C(O)C3O)C2O)C(O)C(O)C1O (some centres not stated) | 8.61 | 4.97 |  | 5.93 | 9.32 | 8.67 |  | 10.3 | 20.8 | 11.6 | 3.62 | 5.38
Cc1cc2nc3c(C#N)c(-c4ccccc4)/c(=C\Nc4cccc(C(F)(F)F)c4)c(=O)n3c2cc1C | > 100 |  |  | > 100 | > 100 | > 100 | > 100 | > 100 | > 100 | > 100 | > 100 | > 100
CC(C)(C)c1cc(C2COC(=O)COCCOCC(=O)OCCOCCO2)cc(C(C)(C)C)c1O (configuration not stated) | 33.4 | 37.1 | > 100 | > 100 | > 100 |  | > 100 | 99.1 | > 100 | > 100 | > 100 | 47
Cc1[nH]n(C(=O)c2ccccc2O)c(=O)c1/C=C1\C(=O)C=Cc2ccccc21 | 6.64 | 48.6 | > 81 | 15.1 | 79.7 | > 100 | 8.57 | 9.99 |  | 4.26 | 40.7 | 18.8
COc1cc(O)c(C(=O)/C=C/c2ccc(O)cc2)cc1Oc1ccc(C(=O)/C=C/c2ccc(O)cc2)c(O)c1 | 9.69 | 5.78 | 2.66 | 13.5 | 11.8 | 12.1 |  | 8.88 | 8.37 | 4.19 | 4.97 | 6.1
N=C(/C=C/c1ccc(-c2cn3cc(/C=C/C(=N)N4CCOCC4)ccc3n2)cc1)N1CCOCC1 | > 100 | > 100 |  | > 100 | > 100 | > 100 | > 100 | > 100 | > 100 | > 100 | > 100 | > 100
CCCCc1ccc(N2C(=O)c3cc(C)cnc3S2(=O)=O)cc1 |  | > 100 | > 100 | > 100 | > 100 | > 100 | > 100 | > 100 | > 100 | > 100 | > 100 | > 100
Fc1ccc(C(=NCc2ccccc2)N2CCOCC2)cc1 | > 100 | > 100 | > 100 | > 100 | > 100 | > 100 | > 100 | > 100 |  | > 100 | > 100 | > 100
CCOC(=O)Nc1ccc(S(=O)(=O)Nc2ccc(Br)cc2)cc1 | > 100 | > 100 | > 100 | 75.7 | > 100 | > 100 |  | > 100 | 57.1 | 88.7 | > 100 | > 100
COC(=O)CSc1[nH]c2nc(C)nc(Nc3ccccc3)c2c1C#N | > 10 | > 10 | > 10 | > 10 | > 10 | > 10 |  | > 10 | > 10 | > 10 |  | > 10
NS(=O)(=O)c1ccc(CNC(=S)NC(=O)Nc2ccc(Cl)c(Cl)c2)cc1 |  | > 100 | 61.1 | 39 |  | 46.4 |  | 30.2 | > 100 | 33 | 26.7 | 84.7
CCOC(=O)c1c(OCC)[nH]c(=O)c(C(c2ccc(F)cc2)c2c(O)c(C(=O)OCC)c(OCC)[nH]c2=O)c1O | 42.4 | 24.3 | 31.7 | 60.7 | 37.7 |  | 26.1 | 43.6 | 48.3 | 25.9 | 36.3 | 23
CC1(C(O)c2ccccc2)CN(C(C)(C)C)C(=O)/C1=C\Sc1ccccc1 (configuration not stated) | > 100 | > 100 | 79.8 | > 100 | > 100 | > 100 |  | > 100 | > 100 | > 100 | > 100 | 
O=c1[nH]c2ccc(CC(=S)N3CCN(c4ccccc4)CC3)cc2s1 | > 100 | > 100 | > 100 | > 100 | > 100 | > 100 | 69.6 | > 100 |  |  | 21.2 | 46.4
